In test [1] the target is human wild type STING (WT STING) (Homo sapiens, UniProt Q86WV6, H232R). As to the kind of experiment: 293T WT STING standard reporter assay. It counts as cell-based. Particulars: standard reporter assay without digitonin, 7 hours, ISRE firefly luciferase.
The subject of test [2] is peripheral blood mononuclear cell (PBMC). As to the kind of experiment: Peripheral blood mononuclear cell assay. Particulars: average of one to four donors.
Setting [3] is: 293T WT STING EC50, 293T wtSTING-FL cells.
Where [4] appears, read: PBMC, read-out: PBMC EC50 IFN-γ, compounds 1h, washed, 15 hour incubation, interferon-gamma level in medium.
Setting [5] is: 293T wtSTING-FL cells, read-out: 293T WT STING EC50.
The mark [6] stands for this setting: read-out: PBMC EC50 IFN-α, compounds 1h, washed, 15 hour incubation, interferon-alpha level in medium.
Setting [7] is: read-out: PBMC EC50 TNF-α, compounds 1h, washed, 15 hour incubation, tumor necrosis factor-alpha level in medium.
Where [8] appears, read: read-out: PBMC EC50 IFN-γ, compounds 1h, washed, 15 hour incubation, interferon-gamma level in medium.

Read-outs that look alike come from different tables or passages of the source.

Chain of human wild type STING (WT STING) (Q86WV6 whole entry H232R): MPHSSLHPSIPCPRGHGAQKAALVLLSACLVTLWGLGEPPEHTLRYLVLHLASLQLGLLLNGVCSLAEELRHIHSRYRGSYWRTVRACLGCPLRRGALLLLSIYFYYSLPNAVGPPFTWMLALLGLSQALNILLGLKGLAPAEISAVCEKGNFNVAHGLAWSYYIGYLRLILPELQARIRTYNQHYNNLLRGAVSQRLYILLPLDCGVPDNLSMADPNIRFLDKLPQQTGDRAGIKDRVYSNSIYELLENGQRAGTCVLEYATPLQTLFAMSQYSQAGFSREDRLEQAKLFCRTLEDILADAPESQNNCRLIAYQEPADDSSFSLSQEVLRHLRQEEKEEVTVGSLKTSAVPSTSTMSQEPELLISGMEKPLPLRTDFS

In test [1] (setting [3]), `CCCCCC(=O)Oc1ccc(CSP2(=O)CO[C@H]3[C@@H](F)[C@H](n4cnc5c(N)ncnc54)O[C@@H]3COP(=O)(O)O[C@@H]3[C@H](F)[C@@H](CO2)O[C@H]3n2cnc3c(=O)[nH]c(N)nc32)cc1` (single isomer, unassigned) [Compound 42b] returned an EC50 of 200 nM.
As for `CC(C)(C)C(=O)Oc1ccc(CSP2(=O)CO[C@H]3[C@@H](F)[C@H](n4cnc5c(N)ncnc54)O[C@@H]3COP(=O)(O)O[C@@H]3[C@H](F)[C@@H](CO2)O[C@H]3n2cnc3c(=O)[nH]c(N)nc32)cc1` (single isomer, unassigned) [Compound 43a], in test [1] (setting [3]), a half-maximal effect (EC50) was put at 1200 nM.
`CC(C)(C)C(=O)Oc1ccc(CSP2(=O)CO[C@H]3[C@@H](F)[C@H](n4cnc5c(N)ncnc54)O[C@@H]3COP(=O)(O)O[C@@H]3[C@H](F)[C@@H](CO2)O[C@H]3n2cnc3c(=O)[nH]c(N)nc32)cc1` (single isomer, unassigned) [Compound 43b]: the concentration for a half-maximal effect (EC50) in test [1] (setting [3]) amounted to 3100 nM.
Same read-out and setting: the value for `CC(C)(C)C(=O)OCOc1ccc(CSP2(=O)CO[C@H]3[C@@H](F)[C@H](n4cnc5c(N)ncnc54)O[C@@H]3COP(=O)(O)O[C@@H]3[C@H](F)[C@@H](CO2)O[C@H]3n2cnc3c(=O)[nH]c(N)nc32)cc1` (single isomer, unassigned) [Compound 44a] was 1900 nM; that for `CC(C)(C)C(=O)OCOc1ccc(CSP2(=O)CO[C@H]3[C@@H](F)[C@H](n4cnc5c(N)ncnc54)O[C@@H]3COP(=O)(O)O[C@@H]3[C@H](F)[C@@H](CO2)O[C@H]3n2cnc3c(=O)[nH]c(N)nc32)cc1` (single isomer, unassigned) [Compound 44b] was 500 nM; that for `CCCCCCCC(=O)Oc1ccc(CSP2(=O)CO[C@H]3[C@@H](F)[C@H](n4cnc5c(N)ncnc54)O[C@@H]3COP(=O)(O)O[C@@H]3[C@H](F)[C@@H](CO2)O[C@H]3n2cnc3c(=O)[nH]c(N)nc32)cc1` (single isomer, unassigned) [Compound 45a] was 300 nM.
For the molecule `CCCCCCCC(=O)Oc1ccc(CSP2(=O)CO[C@H]3[C@@H](F)[C@H](n4cnc5c(N)ncnc54)O[C@@H]3COP(=O)(O)O[C@@H]3[C@H](F)[C@@H](CO2)O[C@H]3n2cnc3c(=O)[nH]c(N)nc32)cc1` (single isomer, unassigned) [Compound 45b], the 50% effective concentration (EC50) in test [1] (setting [3]) was found to be 150 nM.
The same measure, in the same setting: to `CCCCCCCCCC(=O)Oc1ccc(CSP2(=O)CO[C@H]3[C@@H](F)[C@H](n4cnc5c(N)ncnc54)O[C@@H]3COP(=O)(O)O[C@@H]3[C@H](F)[C@@H](CO2)O[C@H]3n2cnc3c(=O)[nH]c(N)nc32)cc1` (single isomer, unassigned) [Compound 46a] belongs 60 nM.
Turning to `CCCCCCCCCC(=O)Oc1ccc(CSP2(=O)CO[C@H]3[C@@H](F)[C@H](n4cnc5c(N)ncnc54)O[C@@H]3COP(=O)(O)O[C@@H]3[C@H](F)[C@@H](CO2)O[C@H]3n2cnc3c(=O)[nH]c(N)nc32)cc1` (single isomer, unassigned) [Compound 46b], the EC50 in test [1] (read-out: 293T WT STING EC50, 293T wtSTING-FL cells) was determined as 60 nM.
The molecule `CCCCCCCCCCCC(=O)Oc1ccc(CSP2(=O)CO[C@H]3[C@@H](F)[C@H](n4cnc5c(N)ncnc54)O[C@@H]3COP(=O)(O)O[C@@H]3[C@H](F)[C@@H](CO2)O[C@H]3n2cnc3c(=O)[nH]c(N)nc32)cc1` (single isomer, unassigned) [Compound 47a] yielded a concentration for a half-maximal effect (EC50) in test [1] (setting [3]) of 50 nM.
On the same count and under the same terms, to `CCCCCCCCCCCC(=O)Oc1ccc(CSP2(=O)CO[C@H]3[C@@H](F)[C@H](n4cnc5c(N)ncnc54)O[C@@H]3COP(=O)(O)O[C@@H]3[C@H](F)[C@@H](CO2)O[C@H]3n2cnc3c(=O)[nH]c(N)nc32)cc1` (single isomer, unassigned) [Compound 47b] belongs 90 nM; to `CCCC(=O)Oc1ccc(CSP2(=O)CO[C@H]3[C@@H](F)[C@H](n4cnc5c(N)ncnc54)O[C@@H]3COP(=O)(O)O[C@@H]3[C@H](F)[C@@H](CO2)O[C@H]3n2cnc3c(=O)[nH]c(N)nc32)cc1` (single isomer, unassigned) [Compound 48a], 5600 nM.
Regarding `CCCC(=O)Oc1ccc(CSP2(=O)CO[C@H]3[C@@H](F)[C@H](n4cnc5c(N)ncnc54)O[C@@H]3COP(=O)(O)O[C@@H]3[C@H](F)[C@@H](CO2)O[C@H]3n2cnc3c(=O)[nH]c(N)nc32)cc1` (single isomer, unassigned) [Compound 48b], in test [1] (setting [3]), the midpoint of the response, the EC50, lay at 3400 nM.
As for `CCCCCC(=O)Oc1ccc(C(=O)Oc2ccc(CSP3(=O)CO[C@H]4[C@@H](F)[C@H](n5cnc6c(N)ncnc65)O[C@@H]4COP(=O)(O)O[C@@H]4[C@H](F)[C@@H](CO3)O[C@H]4n3cnc4c(=O)[nH]c(N)nc43)cc2)cc1` (single isomer, unassigned) [Compound 49a], the midpoint of the response in test [1] (setting [3]), the EC50, lay at 1800 nM.
`CCCCCC(=O)Oc1ccc(C(=O)Oc2ccc(CSP3(=O)CO[C@H]4[C@@H](F)[C@H](n5cnc6c(N)ncnc65)O[C@@H]4COP(=O)(O)O[C@@H]4[C@H](F)[C@@H](CO3)O[C@H]4n3cnc4c(=O)[nH]c(N)nc43)cc2)cc1` (single isomer, unassigned) [Compound 49b] showed an EC50 in test [1] (setting [3]) of 4500 nM.
For `CC(C)(C)C(=O)OCSP1(=O)CO[C@H]2[C@@H](F)[C@H](n3cnc4c(N)ncnc43)O[C@@H]2COP(=O)(SCOC(=O)C(C)(C)C)O[C@@H]2[C@H](F)[C@@H](CO1)O[C@H]2n1cnc2c(=O)[nH]c(N)nc21` (single isomer, unassigned) [Compound 55c], the EC50 stood at 650 nM in test [1] (setting [3]); 10000 nM in test [2] (PBMC, read-out: PBMC EC50 IFN-α, compounds 1h, washed, 15 hour incubation, interferon-alpha level in medium); 3700 nM in test [2] (setting [4]); 7000 nM in test [2] (PBMC, read-out: PBMC EC50 TNF-α, compounds 1h, washed, 15 hour incubation, tumor necrosis factor-alpha level in medium).
Molecule `CC(C)(C)C(=O)OCSP1(=O)CO[C@H]2[C@@H](F)[C@H](n3cnc4c(N)ncnc43)O[C@@H]2COP(=O)(SCOC(=O)C(C)(C)C)O[C@@H]2[C@H](F)[C@@H](CO1)O[C@H]2n1cnc2c(=O)[nH]c(N)nc21` (single isomer, unassigned) [Compound 55d] showed an EC50 in test [1] (setting [3]) of 300 nM.
Still for that read-out and setting: to `CCCCCCCCCCCC(=O)OCSP1(=O)CO[C@H]2[C@@H](F)[C@H](n3cnc4c(N)ncnc43)O[C@@H]2COP(=O)(O)O[C@@H]2[C@H](F)[C@@H](CO1)O[C@H]2n1cnc2c(=O)[nH]c(N)nc21` (single isomer, unassigned) [Compound 76a] belongs 300 nM; to `CCCCCCCCCCCC(=O)OCSP1(=O)CO[C@H]2[C@@H](F)[C@H](n3cnc4c(N)ncnc43)O[C@@H]2COP(=O)(O)O[C@@H]2[C@H](F)[C@@H](CO1)O[C@H]2n1cnc2c(=O)[nH]c(N)nc21` (single isomer, unassigned) [Compound 76b], 30 nM.
As to `CC(C)(C)C(=O)OCOP1(=O)CO[C@H]2[C@@H](F)[C@H](n3cnc4c(N)ncnc43)O[C@@H]2COP(=O)(OCOC(=O)C(C)(C)C)O[C@@H]2[C@H](F)[C@@H](CO1)O[C@H]2n1cnc2c(=O)[nH]cnc21` (single isomer, unassigned) [Compound 77a], the EC50 in test [1] (setting [5]) stood at 600 nM; in test [2] (setting [4]), 1700 nM; in test [2] (setting [6]), 2800 nM; in test [2] (setting [7]), 1400 nM.
For `CC(C)(C)C(=O)OCOP1(=O)CO[C@H]2[C@@H](F)[C@H](n3cnc4c(N)ncnc43)O[C@@H]2COP(=O)(OCOC(=O)C(C)(C)C)O[C@@H]2[C@H](F)[C@@H](CO1)O[C@H]2n1cnc2c(=O)[nH]cnc21` (single isomer, unassigned) [Compound 77b], the EC50 in test [1] (setting [5]) was found to be 300 nM; in test [2] (setting [6]) it was 4000 nM; in test [2] (setting [8]), 3000 nM; in test [2] (setting [7]), 3600 nM.
The corresponding values for `CC(C)(C)C(=O)OCOP1(=O)CO[C@H]2[C@@H](F)[C@H](n3cnc4c(N)ncnc43)O[C@@H]2COP(=O)(OCOC(=O)C(C)(C)C)O[C@@H]2[C@H](F)[C@@H](CO1)O[C@H]2n1cnc2c(=O)[nH]cnc21` (single isomer, unassigned) [Compound 77c] are 200 nM, 700 nM, 2300 nM and 3700 nM.
Turning to `CC(C)(C)C(=O)OCOP1(=O)CO[C@H]2[C@@H](F)[C@H](n3cnc4c(N)ncnc43)O[C@@H]2COP(=O)(OCOC(=O)C(C)(C)C)O[C@@H]2[C@H](F)[C@@H](CO1)O[C@H]2n1cnc2c(N)ncnc21` (single isomer, unassigned) [Compound 81c], in test [1] (setting [5]), the EC50 was 140 nM.
Consider `CSP1(=O)CO[C@H]2[C@@H](F)[C@H](n3cnc4c(N)ncnc43)O[C@@H]2COP(=O)(SC)O[C@@H]2[C@H](F)[C@@H](CO1)O[C@H]2n1cnc2c(=O)[nH]c(N)nc21` (stereo partly drawn) [Compound 52c, (1S,6R,8R,9R,10R,16R,18R,19R)-18-(2-amino-6-oxo-6,9-dihydro-1H-purin-9-yl)-8-(6-amino-9H-purin-9-yl)-9,19-difluoro-3,13-bis(methylsulfanyl)-2,4,7,11,14,17-hexaoxa-3λ^5,13λ^5-diphosphatricyclo[14.2.1.0^6,10]nonadecane-3,13-dione], for which, in test [1] (setting [3]), the half-maximal effective concentration (EC50) is greater than 20000 nM.
Turning to `CCCCCCCC(=O)OCSP1(=O)CO[C@H]2[C@@H](F)[C@H](n3cnc4c(N)ncnc43)O[C@@H]2COP(=O)(SCOC(=O)CCCCCCC)O[C@@H]2[C@H](F)[C@@H](CO1)O[C@H]2n1cnc2c(=O)[nH]c(N)nc21` (stereo partly drawn) [Compound 69b, {[(1S,6R,8R,9R,10R,16R,18R,19R)-18-(2-amino-6-oxo-6,9-dihydro-1H-purin-9-yl)-8-(6-amino-9H-purin-9-yl)-9,19-difluoro-13-{[(octanoyloxy)methyl]sulfanyl}-3,13-dioxo-2,4,7,11,14,17-hexaoxa-3λ^5,13λ^5-diphosphatricyclo[14.2.1.0^6,10]nonadecan-3-yl]sulfanyl}methyl octanoate], it took 200 nM to reach a half-maximal effect in test [1] (setting [3]) (EC50).

The record behind these values is patent US12318403B2, “2′3′-cyclic dinucleotides and prodrugs thereof” (INSTITUTE OF ORGANIC CHEMISTRY AND BIOCHEMISTRY ASCR, V.V.I., priority 2019, dated 2025).
